The values that follow are results of earlier work, collected in patent publication US20230330042A1, “FORMULATION FOR ORAL ADMINISTRATION” (NIPPON ZOKI PHARMACEUTICAL CO., LTD., priority 2020, published 2023).

One data set addresses Noradrenaline reuptake (Homo sapiens, UniProt P23975).
For data set [1] the following is noted: in vivo.
The target of a further data set is κ-opioid receptor (Homo sapiens, UniProt P41145). The settings on record: read-out: Ki κ.
A further data set has as its target δ-opioid receptor (Homo sapiens, UniProt P41143). The settings on record: read-out: Ki δ; Mean value (n = 2-3).
A further data set addresses μ-opioid receptor (Homo sapiens, UniProt P35372). The settings on record: read-out: Ki μ; Mean value (n = 2-3).
Another data set has as its target Serotonin reuptake (Homo sapiens, UniProt P31645). To be noted: read-out: Ki Serotonin.
Where [2] appears, read: Mean value (n = 2-3); NA: no activity at 10 μmol/L; read-out: Ki Noradrenaline.
[3] abbreviates: read-out: Ki Noradrenaline; Mean value (n = 2-3); NA: no activity at 10 μmol/L.

Like-named read-outs stand apart in the source and are kept apart here. A value given as a limit tells only on which side of the number the result lay.

δ-opioid receptor, sequence (P41143 whole entry): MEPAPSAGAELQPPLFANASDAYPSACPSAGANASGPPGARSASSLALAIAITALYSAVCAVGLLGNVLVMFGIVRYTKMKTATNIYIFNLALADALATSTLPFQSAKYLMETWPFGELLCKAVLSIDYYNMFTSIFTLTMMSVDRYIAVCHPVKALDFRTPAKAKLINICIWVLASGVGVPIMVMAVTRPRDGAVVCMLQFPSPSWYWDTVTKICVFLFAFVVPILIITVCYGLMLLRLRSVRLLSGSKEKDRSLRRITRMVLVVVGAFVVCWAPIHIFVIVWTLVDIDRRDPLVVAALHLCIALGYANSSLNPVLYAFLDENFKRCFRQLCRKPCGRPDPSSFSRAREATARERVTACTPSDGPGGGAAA
κ-opioid receptor, sequence (P41145 whole entry): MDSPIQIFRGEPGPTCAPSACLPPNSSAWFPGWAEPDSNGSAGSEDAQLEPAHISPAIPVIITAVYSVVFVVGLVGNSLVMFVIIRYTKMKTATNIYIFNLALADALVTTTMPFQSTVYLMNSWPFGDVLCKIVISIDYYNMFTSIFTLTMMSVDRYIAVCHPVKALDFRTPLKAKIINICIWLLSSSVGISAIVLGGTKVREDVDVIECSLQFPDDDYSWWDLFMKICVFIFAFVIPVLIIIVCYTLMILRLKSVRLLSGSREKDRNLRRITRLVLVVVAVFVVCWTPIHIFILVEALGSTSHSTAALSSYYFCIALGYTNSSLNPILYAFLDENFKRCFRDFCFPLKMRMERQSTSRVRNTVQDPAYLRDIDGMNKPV
Noradrenaline reuptake, sequence (P23975 whole entry): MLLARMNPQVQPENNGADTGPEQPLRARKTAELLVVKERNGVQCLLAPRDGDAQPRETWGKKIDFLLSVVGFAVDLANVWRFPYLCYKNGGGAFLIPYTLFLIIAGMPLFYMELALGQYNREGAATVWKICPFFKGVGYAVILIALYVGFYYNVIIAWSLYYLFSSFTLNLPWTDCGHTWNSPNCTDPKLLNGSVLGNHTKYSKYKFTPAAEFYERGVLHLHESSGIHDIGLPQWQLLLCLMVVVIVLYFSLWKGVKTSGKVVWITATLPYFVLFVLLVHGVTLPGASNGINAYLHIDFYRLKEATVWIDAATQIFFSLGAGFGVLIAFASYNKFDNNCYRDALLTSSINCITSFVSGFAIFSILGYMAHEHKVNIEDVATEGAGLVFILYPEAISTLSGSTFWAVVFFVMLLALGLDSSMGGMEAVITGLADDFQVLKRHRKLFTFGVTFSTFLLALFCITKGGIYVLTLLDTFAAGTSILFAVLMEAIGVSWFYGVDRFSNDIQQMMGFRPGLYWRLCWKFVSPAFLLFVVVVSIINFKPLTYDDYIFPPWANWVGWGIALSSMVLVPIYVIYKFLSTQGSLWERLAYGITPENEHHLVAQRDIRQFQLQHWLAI
μ-opioid receptor, sequence (P35372 whole entry, species assumed): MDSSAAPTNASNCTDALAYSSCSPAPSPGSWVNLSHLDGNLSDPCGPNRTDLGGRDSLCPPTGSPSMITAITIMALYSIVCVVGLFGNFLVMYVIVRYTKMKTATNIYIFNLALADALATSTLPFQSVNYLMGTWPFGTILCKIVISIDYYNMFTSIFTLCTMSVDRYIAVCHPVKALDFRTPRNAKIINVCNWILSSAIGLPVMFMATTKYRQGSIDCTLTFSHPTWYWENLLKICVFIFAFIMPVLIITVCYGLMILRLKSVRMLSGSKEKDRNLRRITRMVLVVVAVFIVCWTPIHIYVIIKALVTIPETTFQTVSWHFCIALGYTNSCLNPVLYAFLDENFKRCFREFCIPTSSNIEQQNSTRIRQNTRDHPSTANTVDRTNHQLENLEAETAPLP
Serotonin reuptake, sequence (P31645 whole entry): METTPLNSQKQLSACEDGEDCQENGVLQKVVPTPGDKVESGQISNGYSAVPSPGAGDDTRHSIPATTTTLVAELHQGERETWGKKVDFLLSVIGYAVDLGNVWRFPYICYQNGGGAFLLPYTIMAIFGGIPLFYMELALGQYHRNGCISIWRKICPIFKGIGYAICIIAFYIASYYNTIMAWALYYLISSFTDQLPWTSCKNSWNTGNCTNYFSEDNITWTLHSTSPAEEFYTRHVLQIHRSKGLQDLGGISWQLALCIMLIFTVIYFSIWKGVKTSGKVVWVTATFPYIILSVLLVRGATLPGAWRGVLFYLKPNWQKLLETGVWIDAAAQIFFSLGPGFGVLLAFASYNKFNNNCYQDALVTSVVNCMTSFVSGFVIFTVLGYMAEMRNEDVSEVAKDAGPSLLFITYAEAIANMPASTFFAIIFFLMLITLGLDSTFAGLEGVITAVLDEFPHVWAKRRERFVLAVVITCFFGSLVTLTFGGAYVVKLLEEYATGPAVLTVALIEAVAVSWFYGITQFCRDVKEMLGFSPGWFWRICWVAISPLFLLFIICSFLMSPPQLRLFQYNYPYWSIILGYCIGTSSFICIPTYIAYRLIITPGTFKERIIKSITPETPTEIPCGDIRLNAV

As for `CN(C)CC1CCCCC1(O)c1cccc(O)c1` (racemic) [(±)-M1, O-desmethyltramadol], the Ki at Noradrenaline reuptake (setting [2]) is 1.52 µM; at κ-opioid receptor (Mean value (n = 2-3)), 0.242 µM. The half-life in data set [1] (po) was 6 to 7 h.
With `COc1cccc(C2(O)CCCCC2CN(C)C)c1` (single isomer, unassigned; (+)) [(+)-Tramadol, (+)-tramadol], the Ki on Noradrenaline reuptake (setting [2]) was 2.51 µM; on δ-opioid receptor, 6.24 µM; at κ-opioid receptor it was 54 µM.
For the molecule `CN(C)CC1CCCCC1(O)c1cccc(O)c1` (single isomer, unassigned; (-)) [(−)-M1], the inhibitory constant (Ki) at Noradrenaline reuptake (setting [2]) is 0.857 µM; on δ-opioid receptor, 30.5 µM; at κ-opioid receptor (Mean value (n = 2-3)), 32.9 µM.
In the case of `CN(C)CCCN1c2ccccc2CCc2ccccc21` [Imipramine], the inhibition constant Ki is 3.73 µM at μ-opioid receptor and 12.7 µM at δ-opioid receptor.
Consider `COc1cccc([C@@]2(O)CCCC[C@@H]2CN(C)C)c1` (racemic) [(±)-Tramadol, (1RS,2RS)-2-[(dimethylamino)methyl]-1-(3-methoxyphenyl)cyclohexanol], for which, at Noradrenaline reuptake (setting [3]), the inhibition constant Ki was 0.785 µM. In data set [1], the “unchanged tramadol and metabolites excreted through the kidney” value is reported as “about 90%”. Further, in data set [1] (po), the half-life was 5 to 6 h, the “time after administration at which the maximum drug concentration is reached” value was 1.6 to 1.9 h and the “time at which the maximum concentration in the brain is reached” value was 10 min. For the same molecule, on δ-opioid receptor, the inhibition constant Ki was 57.7 µM. Besides, the inhibition constant Ki on κ-opioid receptor is 42.7 µM.
For the molecule `COc1ccc2c3c1O[C@H]1[C@@H](O)C=C[C@H]4[C@@H](C2)N(C)CC[C@@]341` [Codeine], the inhibitory constant (Ki) at Noradrenaline reuptake (setting [3]) and on Serotonin reuptake was over 10 µM each time.
For `CN(C)CC1CCCCC1(O)c1cccc(O)c1` (single isomer, unassigned; (+)) [(+)-M1], the inhibition constant (Ki) on Noradrenaline reuptake (setting [2]) is 14.4 µM; at δ-opioid receptor it was 0.594 µM; on κ-opioid receptor (Mean value (n = 2-3)) it was 0.706 µM.
Turning to `COc1cccc(C2(O)CCCCC2CN(C)C)c1` (single isomer, unassigned; (-)) [(−)-Tramadol, (−)-tramadol], the figures for the Ki at Noradrenaline reuptake (setting [2]), on δ-opioid receptor and at κ-opioid receptor were 0.432 µM, 213 µM and 53.5 µM, respectively.

By Ki is commonly meant a measure of affinity in units of concentration, obtained from inhibition or displacement. Broadly, the half-life is the time needed for the level to fall by half in the phase considered.
